Measurements taken from US20230277553A1, “THERAPEUTIC COMPOSITION OF CURE-PRO COMPOUNDS FOR TARGETED DEGRADATION OF BET DOMAIN PROTEINS, AND METHODS OF MAKING AND USAGE” (CORNELL UNIVERSITY, priority 2020, published 2023).
“Also recorded” adds a separate entry of the source.

Experiments:
[1] = target: T1, BRD4 (Homo sapiens, UniProt O60885); assay: CURE-PRO-mediated BRD4 degradation, Western blot, HeLa cells; type: cell-based; design: endogenous in cells; host or cells: HeLa; conditions: 24 h; for BRD4 degradation, co-treatment with CRBN ligand 8066: 1:1 with 8066, 10 μM each (BRD-E10: 10 and 100 μM); for BRD4 degradation, co-treatment with CRBN ligand 8066 / BRD4 degradation, co-treatment with CRBN ligand 8048 / BRD4 degradation, co-treatment with CRBN ligand 8049 / BRD4 degradation, BRD ligand alone / BRD4 degradation, co-treatment with CRBN ligand 8046 / BRD4 degradation, co-treatment with CRBN ligand 8047: Western blot; for BRD4 degradation, co-treatment with CRBN ligand 8048: 1:1 with 8048, 1-10 μM each; for BRD4 degradation, co-treatment with CRBN ligand 8049: 1:1 with 8049, 1-10 μM each; for BRD4 degradation, BRD ligand alone: BRD monomer alone; for BRD4 degradation, co-treatment with CRBN ligand 8046: 1:1 with 8046, 10 μM each; for BRD4 degradation, co-treatment with CRBN ligand 8047: 1:1 with 8047, 10 μM each
Procedure: All cell lines were purchased from ATCC or DSMZ and grown at 37° C. with 5% CO2. Human HeLa cells were cultured in complete growth medium (Dulbecco's modified Eagle's medium (DMEM) supplemented with 10% FBS); MCF7 cells were cultured in complete growth medium (Dulbecco's modified Eagle's medium (DMEM) supplemented with 10% FBS and 0.01 mg/ml human recombinant insulin (Sigma Aldrich); Namalwa and MOLM-13 cells were cultured in complete growth medium (RPMI 1640 medium supplemented with 10% FBS); MV-4-11 were cultured in complete growth medium (Iscove's Modified Dulbecco's medium, supplemented with 10% FBS); HCT116 cells were cultured in complete growth medium (McCoy's 5a Medium supplemented with 10% FBS). For cellular degradation of BRD4 studies, cells were seeded in a 12-well plate at 70-80% confluency, allowed to attach overnight, and incubated with the indicated compounds for the indicated time. When indicated, a 15-minute pretreatment with 10 μM pomalidomide, 10 μM VHL298, 10 μM Nutlin3a, 1 μM MG-132 or 1 μM Carfilzomib was performed before the addition of CURE-PROs. For washout studies, after CURE-PRO treatment, media was aspirated and incubated with complete medium for the indicated time before lysis.
Anti-BRD4 (13440, 1:1,000 dilution for Western Blot and 1:25 dilution for ProteinSimple); Anti-BRD2 (5848 1:1,000 dilution for Western Blot and 1:25 dilution for ProteinSimple); β-Actin (3700, 1:2,000 dilution for Western Blot), β-Actin (4970, 1:50 dilution for ProteinSimple) anti-mouse IgG-HRP, and anti-rabbit IgG-HRP antibodies were purchased Cell Signaling Technology. Anti-GAPDH (600-401-A33, 1:100 dilution for ProteinSimple) was purchased from Rockland Immunochemicals, Inc. Anti-BRD3 (sc-81202, 1:200 dilution for Western Blot) was purchased from Santa Cruz Biotechnology.
HeLa, MCF7, or HCT116 cells (2.5-3×10^6) were treated for 24 hours with the indicated compounds solubilized in DMSO. The cells were washed in ice-cold PBS and were then lysed in RIPA lysis buffer (150 mM NaCl, 5 mM EDTA, 1% NP-40, 0.5% sodium deoxycholate, 0.1% SDS, 50 mM Tris, pH 8.0.) with Roche protease inhibitor complete cocktail and phosphatase inhibitors (10 mM sodium fluoride, 10 mM sodium pyrophosphate, 1 mM sodium orthovanadate and 20 mM β-glycerophosphate). The total protein concentrations were determined by Bradford Protein Assay and 10-20 μg of protein was loaded onto 4-15% Tris-Glycine gradient gels (Biorad). After standard gel electrophoresis, the separated proteins were transferred to PVDF membrane by wet transfer. The immunoblots were then blocked for 1 hour in 5% skim milk in TBST or 5% BSA in TBST, according to manufacturer's instructions, before an overnight incubation at 4° C. with indicated antibodies and membranes. Membranes were then incubated with the appropriate horseradish peroxidase-conjugated secondary antibodies (1:5,000 dilution) for 1 h at room temperature and the bands were visualized using the Clarity Max Western ECL Substrate (Biorad) and the ChemiDoc Imaging System (Biorad). Signal was detected with ECL Western Blotting Substrate (Pierce) and X-ray film processed with a Konica SRX-101 X-ray film processor or captured by Bio-Rad's Chemidoc Imaging system.
HeLa cells (2.5×106) were treated for 24 hours with the sample compounds solubilized in DMSO. Compounds were added at 1-10 μM each. Standardized protein samples were electrophoresed and imaged as described in the immunoblotting description above. FIGS. 6-18 depicts the CURE-PRO-mediated BRD4 degradation for BRD monomers (JQ1 derivatives comprising of catechol linkers), and CRBN ligands, 8048 and 8049 (pomalidomide derivatives comprising boronic acid linkers) combined in a 1:1 ratio.
HeLa cells (2.5×106) were treated for 24 hours with the compounds solubilized in DMSO. The compounds were added at 10 μM each. Standardized protein samples were electrophoresed and imaged as described in the immunoblotting section above. […]

[2] = target: T1, BRD4; assay: Summary of BRD4 degradation by CURE-PRO pairs, estimated from Western Blot or WES (Proteinsimple); type: cell-based; design: endogenous in cells; conditions: for Degradation of BRD4 in combination with CRBN ligand [drawing 372] / Degradation of BRD4 in combination with CRBN ligand [drawing 371] / Degradation of BRD4 in combination with CRBN ligand [drawing 370]: Table 1; for Degradation of BRD4 in combination with CRBN ligand [drawing 372]: third drawing (8066); for Degradation of BRD4 in combination with CRBN ligand [drawing 407]: first drawing (by text: 8048); for Degradation of BRD4 in combination with CRBN ligand [drawing 371]: second drawing (8047); for Degradation of BRD4 in combination with CRBN ligand [drawing 370]: aromatic 1,2-diol- or hindered cis-1,2-diol-containing CRBN ligand, first drawing (8046)
Source text: A black check mark indicates efficacy of 30% to 70% or higher protein degradation.

[3] = Table 4, aryl-boronic acid-containing CRBN ligand

Compound	BRD4 degradation, co-treatment with CRBN ligand 8066 [1]	Degradation of BRD4 in combination with CRBN ligand [drawing 372] [2]	BRD4 degradation, co-treatment with CRBN ligand 8048 [1]	BRD4 degradation, co-treatment with CRBN ligand 8049 [1]	BRD4 degradation, BRD ligand alone [1]	Degradation of BRD4 in combination with CRBN ligand [drawing 407] [2, 3]	BRD4 degradation, co-treatment with CRBN ligand 8047 [1]	Degradation of BRD4 in combination with CRBN ligand [drawing 371] [2]	further results
COc1ccc2c(c1)C(c1ccc(Cl)cc1)=N[C@@H](CC(=O)NCCOCCOCCNC(=O)c1ccc(B(O)O)cc1)c1nnc(C)n1-2 [BRD-E45]	causes degradation of BRD4	✓ (A black check mark indicates efficacy of 30% to 70% or higher protein degradation)							Degradation of BRD4 in combination with VHL ligand [drawing 397] ([2]; Table 3, aromatic 1,2-diol-containing VHL ligand, second drawing (8305)): ✓ (A black check mark indicates efficacy of 30% to 70% or higher protein degradation)
COc1ccc2c(c1)C(c1ccc(Cl)cc1)=N[C@@H](CC(=O)NCCCCNC(=O)c1ccc(O)c(O)c1)c1nnc(C)n1-2 [BRD-N5]			causes degradation of BRD4; also recorded: Degradation is noted	no evidence of BRD4 degradation	no degradation of BRD4	✓ (A black check mark indicates efficacy of 30% to 70% or higher protein degradation)			
COc1ccc2c(c1)C(c1ccc(Cl)cc1)=N[C@@H](CC(=O)NCCCCNC(=O)c1cccc(O)c1O)c1nnc(C)n1-2 [BRD-N6]			causes degradation of BRD4; also recorded: Degradation is noted	no evidence of BRD4 degradation	no degradation of BRD4	✓ (A black check mark indicates efficacy of 30% to 70% or higher protein degradation)			
CCNC(=O)C[C@@H]1N=C(c2ccc(Cl)cc2)c2cc(-c3ccc4cc(O)c(O)cc4c3)ccc2-n2c(C)nnc21 [BRD-N67]			causes degradation of BRD4	causes degradation of BRD4	no degradation of BRD4	✓ (A black check mark indicates efficacy of 30% to 70% or higher protein degradation)			Degradation of BRD4 in combination with CRBN ligand [drawing 408] ([2]; Table 4, aryl-boronic acid-containing CRBN ligand, second drawing (by text: 8049)): ✓ (A black check mark indicates efficacy of 30% to 70% or higher protein degradation)
CCNC(=O)C[C@@H]1N=C(c2ccc(Cl)cc2)c2cc(OCCOCCOCCOCCOCCOCCNC(=O)c3ccc(O)c(O)c3)ccc2-n2c(C)nnc21 [BRD-N70, N-(17-(((4S)-6-(4-chlorophenyl)-4-(2-(ethylamino)-2-oxoethyl)-1-methyl-4H-benzo[f][1,2,4]triazolo[4,3-a][1,4]diazepin-8-yl)oxy)-3,6,9,12,15-pentaoxaheptadecyl)-3,4-dihydroxybenzamide]			causes degradation of BRD4; also recorded: Degradation is noted	no evidence of BRD4 degradation		✓ (A black check mark indicates efficacy of 30% to 70% or higher protein degradation)			
COc1ccc2c(c1)C(c1ccc(Cl)cc1)=N[C@@H](CC(=O)NCCCNC(=O)c1cccc(B(O)O)c1)c1nnc(C)n1-2 [BRD-E4]	causes degradation of BRD4; also recorded: Degradation is noted	✓ (A black check mark indicates efficacy of 30% to 70% or higher protein degradation)					causes degradation of BRD4; also recorded: Degradation is noted	✓ (A black check mark indicates efficacy of 30% to 70% or higher protein degradation)	BRD4 degradation, co-treatment with CRBN ligand 8046 [1]: causes degradation of BRD4; also recorded: Degradation is noted; Degradation of BRD4 in combination with CRBN ligand [drawing 370] [2]: ✓ (A black check mark indicates efficacy of 30% to 70% or higher protein degradation)
COc1ccc2c(c1)C(c1ccc(Cl)cc1)=N[C@@H](CC(=O)NCCCCNC(=O)c1ccc(B(O)O)cc1)c1nnc(C)n1-2 [BRD-E5]	causes degradation of BRD4; also recorded: Degradation is noted	✓ (A black check mark indicates efficacy of 30% to 70% or higher protein degradation)					causes degradation of BRD4; also recorded: Degradation is noted	✓ (A black check mark indicates efficacy of 30% to 70% or higher protein degradation)	
COc1ccc2c(c1)C(c1ccc(Cl)cc1)=N[C@@H](CC(=O)NCc1cccc(B(O)O)c1)c1nnc(C)n1-2 [BRD-E10]								✓ (A black check mark indicates efficacy of 30% to 70% or higher protein degradation)	Concentration at which BRD4 degradation is observed, co-dosed with 8046 ([1]; 1:1 with 8046): 100 µM; Concentration at which complete BRD4 degradation is demonstrated, with 8047 ([1]; 1:1 with 8047, tested 10 and 100 μM): 10 µM; Degradation of BRD4 in combination with CRBN ligand [drawing 370] [2]: ✓ (A black check mark indicates efficacy of 30% to 70% or higher protein degradation); Degradation of BRD4 in combination with VHL ligand [drawing 396] ([2]; Table 3, aromatic 1,2-diol-containing VHL ligand, first drawing (by text: 8304)): ✓ (A black check mark indicates efficacy of 30% to 70% or higher protein degradation)
COc1ccc2c(c1)C(c1ccc(Cl)cc1)=N[C@@H](CC(=O)NCCOCCOCCOCCNC(=O)c1ccc(O)c(O)c1)c1nnc(C)n1-2 [BRD-N44]			causes degradation of BRD4		no degradation of BRD4	✓ (A black check mark indicates efficacy of 30% to 70% or higher protein degradation)			
CCNC(=O)C[C@@H]1N=C(c2ccc(Cl)cc2)c2cc(OCCOCCOCCOCCNC(=O)c3ccc(B(O)O)cc3)ccc2-n2c(C)nnc21 [BRD-E43]	causes degradation of BRD4; also recorded: Degradation is noted	✓ (A black check mark indicates efficacy of 30% to 70% or higher protein degradation)					causes degradation of BRD4	✓ (A black check mark indicates efficacy of 30% to 70% or higher protein degradation)	BRD4 degradation, co-treatment with CRBN ligand 8046 [1]: but not 8046
CCNC(=O)C[C@@H]1N=C(c2ccc(Cl)cc2)c2cc(OCCOCCOCCNC(=O)c3cccc(B(O)O)c3)ccc2-n2c(C)nnc21 [BRD-E42]							causes degradation of BRD4	✓ (A black check mark indicates efficacy of 30% to 70% or higher protein degradation)	
COc1ccc2c(c1)C(c1ccc(Cl)cc1)=N[C@@H](CC(=O)NCCNC(=O)/C=C/c1cccc(B(O)O)c1)c1nnc(C)n1-2 [BRD-E30, (3-((E)-3-((2-(2-((4S)-6-(4-chlorophenyl)-8-methoxy-1-methyl-4H-benzo[f][1,2,4]triazolo[4,3-a][1,4]diazepin-4-yl)acetamido)ethyl)amino)-3-oxoprop-1-en-1-yl)phenyl)boronic acid]		✓ (A black check mark indicates efficacy of 30% to 70% or higher protein degradation)			no change in expression			✓ (A black check mark indicates efficacy of 30% to 70% or higher protein degradation)	
